Experimental data from patent US5059590A, “Imidazole derivatives, process for production thereof, and use thereof” (Yamasa Shoyu Kabushiki Kaisha, priority 1988, dated 1991).
In brackets after ≈: the same amount, converted by molar mass.

System: L1210 mouse leukemia cells
Assay: In vitro anti-proliferative activity against mouse tumor cell lines, Test Method 1 (L1210)
Type: cell-based
Settings: L1210, 48 hours, 37° C.
Procedure: In vitro anti-proliferative activity against mouse tumor cell lines
1. L1210 mouse leukemia cells are cultivated in RPMI1640 medium supplemented with 10% fetal bovine serum, and the resultant cells are diluted with the same medium in the logarithmic growth phase to a concentration of 1.6×10^5 cells/ml.
2. To test tubes each containing 0.9 ml of the above obtained diluted cell suspension is added 0.1 ml each of test solutions serially diluted with a culture medium or phosphate-buffered saline (PBS), and the mixture is incubated in a 2% CO2 -incubator at 37° C. for 48 hours.
3. After incubation, the number of the cells in each tube is counted with a Coulter counter (Model ZB, Coulter Electronics), and the growth inhibition percent (%) of the cells at each concentration of a test compound is calculated from the following equation: [formula] Tx: Number of the cells in a test tube containing a test compound as counted upon completion of the incubation (cells/ml)
Cx: Number of the cells in a test tube containing no test compound as counted upon completion of the incubation (cells/ml)
Co: Number of the cells in a test tube containing no test compound as counted at the initiation of the incubation (cells/ml)
4. The concentration of the test compound, which causes cell growth inhibition by 50%, is determined by the graph showing the relationship between the growth inhibition percent and the concentration of the test compound, and is defined as 50% inhibitory concentration (IC50).

Which IC50 does the source give for `C#Cc1c(C(N)=O)ncn1[C@@H]1O[C@H](CO)[C@@H](O)[C@H]1O` [5-ethynyl-1-β-D-ribofuranosylimidazole-4-carboxamide] here?
The IC50 was 0.18 µg/mL (≈ 0.674 µM).
